This passage reports T/C results from PubChem BioAssay AID330 (DTP/NCI, 2004).

Where “and” joins values, the source holds several entries; their conditions need not be identical. Equal entries are not always repeated. Inconclusive results and toxic doses are left out.

The assay deals with P388 leukemia ip, CD2F1 mice, survival T/C. The assay is described as follows: NCI In Vivo Anticancer Drug Screen. Data for tumor model P388 Leukemia (intraperitoneal) in CD2F1 (CDF1) mice. The note with it: endpoint: median survival time, higher = longer survival. The method, boiled down:
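Mice carrying the transplanted tumor received test compound or vehicle. Survival was recorded in each group, and the value is the treated-group measurement divided by that of the vehicle-treated control group.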

[1] abbreviates: dose: 100.0 mg/kg/injection, schedule: Q01DX009 (ip), vehicle: saline.
The mark [2] stands for this setting: dose: 100.0 mg/kg/injection, schedule: Q04DX003 (ip), vehicle: saline.
The mark [3] stands for this setting: dose: 200.0 mg/kg/injection, schedule: Q01DX009 (ip), vehicle: saline.
[4] abbreviates: dose: 100.0 mg/kg/injection, schedule: Q04DX002 (ip), vehicle: saline with Tween-80.
Where [5] appears, read: dose: 200.0 mg/kg/injection, schedule: Q04DX002 (ip), vehicle: saline with Tween-80.
The mark [6] stands for this setting: dose: 100.0 mg/kg/injection, schedule: Q01DX001 (ip), vehicle: Klucel (hydroxypropylcellulose) (HPC).
Setting [7] is: dose: 200.0 mg/kg/injection, schedule: Q01DX001 (ip), vehicle: Klucel (hydroxypropylcellulose) (HPC).
Where [8] appears, read: dose: 400.0 mg/kg/injection, schedule: Q01DX001 (ip), vehicle: Klucel (hydroxypropylcellulose) (HPC).
Setting [9] is: dose: 50.0 mg/kg/injection, schedule: Q01DX009 (ip), vehicle: saline with Tween-80.
The mark [10] stands for this setting: dose: 100.0 mg/kg/injection, schedule: Q01DX009 (ip), vehicle: saline with Tween-80.
The mark [11] stands for this setting: dose: 200.0 mg/kg/injection, schedule: Q01DX009 (ip), vehicle: saline with Tween-80.
The mark [12] stands for this setting: dose: 50.0 mg/kg/injection, schedule: Q01DX005 (ip), vehicle: saline with Tween-80.
[13] abbreviates: dose: 100.0 mg/kg/injection, schedule: Q01DX005 (ip), vehicle: saline with Tween-80.
The mark [14] stands for this setting: dose: 200.0 mg/kg/injection, schedule: Q01DX005 (ip), vehicle: saline with Tween-80.
Where [15] appears, read: dose: 400.0 mg/kg/injection, schedule: Q04DX002 (ip), vehicle: saline with Tween-80.
Where [16] appears, read: dose: 50.0 mg/kg/injection, schedule: Q01DX009 (ip), vehicle: saline.
Where [17] appears, read: dose: 6.25 mg/kg/injection, schedule: Q01DX009 (ip), vehicle: saline.
Setting [18] is: dose: 12.5 mg/kg/injection, schedule: Q01DX009 (ip), vehicle: saline.
[19] abbreviates: dose: 100.0 mg/kg/injection, schedule: Q04DX002 (ip), vehicle: saline.
[20] abbreviates: dose: 200.0 mg/kg/injection, schedule: Q04DX002 (ip), vehicle: saline.
The mark [21] stands for this setting: dose: 400.0 mg/kg/injection, schedule: Q04DX002 (ip), vehicle: saline.

For the compound `FC(F)(F)C(Cl)Br` (configuration not stated), the T/C was 109 % of control (dose: 25.0 mg/kg/injection, schedule: Q04DX003 (ip), vehicle: saline); 109 % of control (dose: 50.0 mg/kg/injection, schedule: Q04DX003 (ip), vehicle: saline); 100 % of control under setting [1]; 109 % of control under setting [2]; 90 % of control under setting [3]; 90 % of control (dose: 400.0 mg/kg/injection, schedule: Q01DX009 (ip), vehicle: saline).
In the case of `c1ccc2c(c1)ccc1ncc3ncccc3c12`, the T/C was 98 % of control under setting [4] and 114 % of control under setting [5].
For the compound `CCn1c(Cl)c(/C=N/NC(N)=S)c2cccc(/C=N\NC(N)=S)c21`, the T/C is 97 % of control under setting [6], 87 % of control under setting [7] and 97 % of control under setting [8].
With `C(=C\c1cc2cc(C3=NCCN3)ccc2o1)/c1ccc(C2=NCCN2)cc1`, the T/C under setting [2] was 153 % of control and 157 % of control.
In the case of `N#CSCc1ccc(Cl)cc1Cl`, the T/C under setting [9] was 109 % of control, the T/C under setting [10] is 113 % of control and the T/C under setting [11] was 113 % of control.
As for `NC(=NCCCC(NC(=O)c1ccccc1)C(=O)O)NC(=O)c1ccccc1` (configuration not stated), the T/C is 108 % of control and 91 % of control (dose: 25.0 mg/kg/injection, schedule: Q01DX009 (ip), vehicle: saline with Tween-80); 100 % of control and 90 % of control under setting [9]; 93 % of control and 96 % of control under setting [10]; 86 % of control and 97 % of control under setting [11].
Take `Cc1cc(N/N=C/c2ccc(F)cc2)c2cc3c(cc2n1)OCO3`: the T/C reads like this: (dose: 12.5 mg/kg/injection, schedule: Q01DX005 (ip), vehicle: Klucel (hydroxypropylcellulose) (HPC)) 104 % of control; (dose: 25.0 mg/kg/injection, schedule: Q01DX005 (ip), vehicle: Klucel (hydroxypropylcellulose) (HPC)) 104 % of control; (dose: 50.0 mg/kg/injection, schedule: Q01DX005 (ip), vehicle: Klucel (hydroxypropylcellulose) (HPC)) 107 % of control and 109 % of control.
Regarding `CSc1nc(Cl)c2cn[nH]c2n1`, the T/C by setting is: (dose: 100.0 mg/kg/injection, schedule: Q04DX002 (ip), vehicle: water) 116 % of control; (dose: 200.0 mg/kg/injection, schedule: Q04DX002 (ip), vehicle: water) 109 % of control.
As to `COc1c2c(c(OC)c3c1c(=O)c1ccccc1n3C)OCO2`, the T/C is, setting by setting: under setting [12], 104 % of control; under setting [13], 104 % of control; under setting [14], 100 % of control.
As for `Cn1c2ccccc2c2nnc(-n3nc(-c4ccccc4)cc3N)nc21`, the T/C runs as follows: under setting [4], 92 % of control; under setting [5], 92 % of control; under setting [15], 91 % of control.
For `CS(=O)(=O)C12CCCN1C(=O)C1CCCN1C2=O` (configuration not stated), the T/C under setting [16] was 99 % of control, the T/C under setting [1] is 102 % of control and the T/C under setting [3] was 90 % of control.
Regarding `CCOC(=O)NC(Cc1cc(OC)c(OC)cc1Br)c1ccc(OC)c(OC)c1OC` (configuration not stated), the T/C runs as follows: (dose: 100.0 mg/kg/injection, schedule: Q01DX001 (ip), vehicle: saline with Tween-80) 91 % of control; (dose: 200.0 mg/kg/injection, schedule: Q01DX001 (ip), vehicle: saline with Tween-80) 94 % of control; (dose: 400.0 mg/kg/injection, schedule: Q01DX001 (ip), vehicle: saline with Tween-80) 91 % of control.
As to `NC(=S)N/N=C/c1c(Br)nc2n1CCS2`, the T/C was 99 % of control under setting [6], 92 % of control under setting [7] and 93 % of control under setting [8].
On to `N=C(N)CCCCCCCCC(=N)N`, for which the T/C was 98 % of control and 111 % of control and 118 % of control (dose: 0.78 mg/kg/injection, schedule: Q01DX009 (ip), vehicle: saline); 116 % of control (dose: 1.5 mg/kg/injection, schedule: Q01DX009 (ip), vehicle: saline); 112 % of control and 114 % of control (dose: 1.56 mg/kg/injection, schedule: Q01DX009 (ip), vehicle: saline); 123 % of control under setting [17]; 107 % of control and 116 % of control and 119 % of control under setting [18].
Take `CCC/C(=N\O)S(=O)(=O)c1ccc(NN=O)nc1`: the T/C (dose: 3.12 mg/kg/injection, schedule: Q01DX009 (ip), vehicle: saline) was 107 % of control; the T/C under setting [17] is 108 % of control and 110 % of control; the T/C under setting [18] is 116 % of control and 118 % of control; the T/C (dose: 25.0 mg/kg/injection, schedule: Q01DX009 (ip), vehicle: saline) is 150 % of control.
Take `Cc1cc(C)c(O)c(N=Nc2ccccc2)c1`: the T/C is, setting by setting: (dose: 100.0 mg/kg/injection, schedule: Q04DX003 (ip), vehicle: saline with Tween-80) 105 % of control; (dose: 200.0 mg/kg/injection, schedule: Q04DX003 (ip), vehicle: saline with Tween-80) 105 % of control; (dose: 400.0 mg/kg/injection, schedule: Q04DX003 (ip), vehicle: saline with Tween-80) 105 % of control.
In the case of `O=c1n(-c2ccccc2)c2nc3ccccc3nc2n1-c1ccc(Cl)c(Cl)c1`, the T/C under setting [12] was 90 % of control, the T/C under setting [13] is 100 % of control and the T/C under setting [14] was 109 % of control.
As for `COCCn1cc(F)c(=O)[nH]c1=O`, the T/C runs as follows: (dose: 30.0 mg/kg/injection, schedule: Q04DX002 (ip), vehicle: saline) 110 % of control; (dose: 60.0 mg/kg/injection, schedule: Q04DX002 (ip), vehicle: saline) 104 % of control; under setting [19], 115 % of control and 121 % of control; (dose: 120.0 mg/kg/injection, schedule: Q04DX002 (ip), vehicle: saline) 119 % of control; under setting [20], 121 % of control; (dose: 240.0 mg/kg/injection, schedule: Q04DX002 (ip), vehicle: saline) 121 % of control. For the same compound, the T/C under setting [21] was 118 % of control and 121 % of control.
On to `CC(O)CCc1nc2ccccc2[nH]1` (configuration not stated), for which the T/C runs as follows: under setting [12], 95 % of control; under setting [13], 100 % of control; under setting [14], 95 % of control.
As to `NC(=S)N/N=C\c1nccc2ncccc12`, the T/C by setting is: (dose: 6.25 mg/kg/injection, schedule: Q04DX002 (ip), vehicle: saline with Tween-80) 113 % of control; (dose: 12.5 mg/kg/injection, schedule: Q04DX002 (ip), vehicle: saline with Tween-80) 124 % of control.
For the compound `CCOP(=O)(OCC)C(C)NC(=O)C(C)NC(=O)c1cn(CC)c2nc(C)ccc2c1=O` (configuration not stated), the T/C is, setting by setting: under setting [19], 97 % of control; under setting [20], 97 % of control; under setting [21], 95 % of control.
As for `CC(C)(C)c1ccc(N2CSC(=S)N(c3ccc(C(C)(C)C)cc3)C2)cc1`, the T/C by setting is: under setting [9], 96 % of control; under setting [10], 89 % of control; under setting [11], 90 % of control.
Consider `COc1cc(OC2OC(CO)C(O)C(O)C2O)ccc1/C=C\C(=O)c1ccc(OC2OC(CO)C(O)C(O)C2O)cc1` (configuration not stated), for which the T/C under setting [4] was 91 % of control, the T/C under setting [5] was 96 % of control and the T/C under setting [15] is 96 % of control.
With `CC1NC(C)c2c(ccc3ccccc23)O1` (configuration not stated), the T/C runs as follows: under setting [12], 100 % of control; under setting [13], 100 % of control; under setting [14], 97 % of control.
As to `O=C1CNC(=O)CN1`, the T/C by setting is: under setting [16], 96 % of control; under setting [1], 90 % of control; under setting [2], 100 % of control; under setting [3], 97 % of control; (dose: 200.0 mg/kg/injection, schedule: Q04DX003 (ip), vehicle: saline) 91 % of control; (dose: 400.0 mg/kg/injection, schedule: Q04DX003 (ip), vehicle: saline) 100 % of control.
Consider `COC1C(/C=C2\CC(=O)N(c3ccccc3)C2=O)OC2OC(C)(C)OC21` (configuration not stated), for which the T/C is, setting by setting: (dose: 100.0 mg/kg/injection, schedule: Q01DX001 (ip), vehicle: suspension in saline) 97 % of control; (dose: 200.0 mg/kg/injection, schedule: Q01DX001 (ip), vehicle: suspension in saline) 102 % of control; (dose: 400.0 mg/kg/injection, schedule: Q01DX001 (ip), vehicle: suspension in saline) 100 % of control.
Regarding `O=C1N=c2ccc(Br)cc2=C1c1sc(=O)n(Cc2nc3ccccc3[nH]2)c1O`, the T/C is, setting by setting: under setting [6], 95 % of control; under setting [7], 93 % of control; under setting [8], 90 % of control.
For the compound `CCN1C(=O)/C(=C/C=C/N(C)c2ccccc2)SC1=S`, the T/C runs as follows: under setting [16], 112 % of control; under setting [1], 103 % of control.
